Measurements from patent publication US20240116857A1 (St. Louis University, priority 2022, published 2024).

Experiments:
[1] = test system: Acinetobacter baumannii Ab5075 ΔIJK; experiment: MIC, permeabilized bacteria; type: cell-based
[2] = test system: Burkholderia thailandensis; experiment: microbe, parasite or virus in culture; type: cell-based
[3] = test system: Pseudomonas aeruginosa 462; experiment: MIC, 2-fold broth dilution; type: cell-based; conditions: WT, clinical non MDR
[4] = test system: Staphylococcus aureus ATCC 25923; experiment: MIC, 2-fold broth dilution; type: cell-based; conditions: ATCC25923, non MDR
[5] = test system: Acinetobacter baumannii ATCC17978 Δ3-Pore; experiment: MIC, permeabilized bacteria; type: cell-based
[6] = test system: Acinetobacter baumannii AYE ΔB ΔIJK; experiment: MIC, permeabilized bacteria; type: cell-based
[7] = test system: Pseudomonas aeruginosa 273; experiment: MIC, 2-fold broth dilution; type: cell-based; conditions: WT, clinical non MDR
[8] = test system: Burkholderia thailandensis Δ2-Pore; experiment: microbe, parasite or virus in culture; type: cell-based
[9] = test system: Pseudomonas aeruginosa MP 2019; experiment: MIC, 2-fold broth dilution; type: cell-based; conditions: MP2019, WT, MDR
[10] = test system: E. coli BW25113; experiment: MIC, 2-fold broth dilution, E. coli BW25113; type: cell-based, Escherichia coli; conditions: Escherichia coli; E. coli BW25113; asterisk in column 1-10; read-out: MIC, μM 1-10
[11] = test system: Acinetobacter baumannii AYE; experiment: MIC, 2-fold broth dilution; type: cell-based
[12] = test system: Pseudomonas aeruginosa BAA 2108; experiment: MIC, 2-fold broth dilution; type: cell-based; conditions: BAA2108
[13] = test system: Acinetobacter baumannii ATCC17978; experiment: MIC, 2-fold broth dilution; type: cell-based; conditions: WT
Description: (§1) Luria-Bertani (LB) broth (10 g of Bacto tryptone, 5 g of yeast extract, and 5 g of NaCl per liter; pH 7.0) was used for bacterial growth. The bacterial strains were inoculated overnight at 37° C. Cells were 1:100 subcultured into a fresh 30-ml volume of LB medium and grown at 37° C. to an optical density at 600 nm (OD600) of 0.3. When appropriate, the cells cultures were supplemented with 0.1% L-arabinose or 0.1 mM isopropyl β-d-1-thiogalactopyranoside (IPTG), to induce expression of the “Pore” protein. The cells were cultured up to OD600 of 1.0. The test compounds were dissolved in dimethylsulfoxide (DMSO) to make the final 10 mM stock solution. The minimal inhibitory concentrations (MIC) were determined using the 2-fold broth dilution method (1). The OD600 was measured using a Tecan Spark 10 M microplate reader.

[14] = test system: Enterobacter cloacae ATCC13047; experiment: MIC, 2-fold broth dilution; type: cell-based; conditions: WT
Description: as §1

[15] = test system: Klebsiella pneumoniae ATCC13883; experiment: MIC, 2-fold broth dilution; type: cell-based; conditions: WT
Description: as §1

[16] = test system: Klebsiella oxytoca ATCC700324; experiment: MIC, 2-fold broth dilution; type: cell-based; conditions: WT
Description: as §1

[17] = test system: Klebsiella aerogenes ATCC13048; experiment: MIC, 2-fold broth dilution; type: cell-based; conditions: WT
Description: as §1

[18] = test system: Pseudomonas aeruginosa PAO1; experiment: MIC, 2-fold broth dilution; type: cell-based; conditions: WT
Description: as §1

[19] = test system: Acinetobacter baumannii Ab5075; experiment: MIC, 2-fold broth dilution; type: cell-based
[20] = test system: Pseudomonas aeruginosa 515; experiment: MIC, 2-fold broth dilution; type: cell-based; conditions: WT, clinical non MDR
[21] = test system: Pseudomonas aeruginosa PAO1 Δ6-Pore; experiment: MIC, permeabilized bacteria; type: cell-based
[22] = test system: Yersinia pestis KIM6+; experiment: microbe, parasite or virus in culture; type: cell-based
[23] = test system: Staphylococcus aureus ATCC 700787; experiment: MIC, 2-fold broth dilution; type: cell-based; conditions: ATCC700787
[24] = Cytotoxicity assay (CellTiter AQueous One Solution, MTS); type: cell-based; conditions: human, HEK293 cells, 24 h incubation
Description: Cytotoxicity of the compounds was evaluated using the CellTiter AQueous One Solution Cell Proliferation Assay (MTS; Promega) as previously described (2). HEK293 cells were incubated with a 2-fold serially diluted compounds for 24 h at 37° C. with 5% CO2, followed by addition of 20 μL of CellTiter AQueous and further incubated for 4 h at 37° C. The absorbance at 490 nm was recorded using a Tecan Spark 10 M plate reader. All measurements were done in three replicas. The growth curves were then fitted to a sigmoidal equation to determine the cytotoxicity concentration CC50.

[25] = test system: Klebsiella oxytoca ATCC700324 Pore; experiment: MIC, permeabilized bacteria; type: cell-based

Compound | MIC [1] [µM] | MIC [2] [µM] | MIC [3] [µM] | MIC [4] [µM] | MIC [5] [µM] | MIC [6] [µM] | MIC [7] [µM] | MIC [8] [µM] | MIC [9] [µM] | MIC [10] [µM] | MIC [11] [µM] | MIC [12] [µM] | MIC [13] [µM] | MIC [14] [µM] | MIC [15] [µM] | MIC [16] [µM] | MIC [17] [µM] | MIC [18] [µM] | MIC [19] [µM] | MIC [20] [µM] | also measured
C[n+]1ccc(Nc2ccc(NC(=O)c3ccc(C(=O)Nc4ccc(Nc5cc[n+](C)cc5)cc4)c(Cl)c3)cc2)cc1 [Example 20, 4,4′-((((2-chloroterephthaloyl)bis(azanediyl))bis(4,1-phenylene))bis(azanediyl))bis(1-methylpyridin-1-ium)] | 25 | > 100 | 12.5 | 0.8 | 0.8 | 0.2 | 12.5 | 6.2 | 12.5 | 1 to 10 | 25 | > 100 | 3.1 | 12.5 | 12.5 | 25 | 12.5 | 25 | 25 | 25 | MIC [21]: 0.2 µM; MIC [22]: 1.6 µM; MIC [23]: 1.6 µM; CC50 at 24 h [24]: > 1000 µM; MIC [25]: 25 µM
C[n+]1ccc(Nc2ccc(NC(=O)c3ccc(C(=O)Nc4ccc(Nc5cc[n+](C)cc5)cc4)c(OC(F)(F)F)c3)cc2)cc1 [Example 44, 4,4′-((((2-(trifluoromethoxy)terephthaloyl)bis(azanediyl))bis(4,1-phenylene))bis(azanediyl))bis(1-methylpyridin-1-ium)] | 12.5 | > 100 | 50 | 0.4 | 0.4 | 0.1 | 25 | 6.2 | 25 | 1 to 10 | 25 | 100 | 3.1 | 25 | 25 | 100 | 50 | 25 | 25 | 50 | MIC [21]: 0.4 µM; MIC [22]: 1.6 µM; MIC [23]: 0.2 µM; CC50 at 24 h [24]: 290 µM; MIC [25]: 50 µM
